From PMC8072159, “5-Bis-(2,6-difluoro-benzylidene) Cyclopentanone Acts as a Selective 11β-Hydroxysteroid Dehydrogenase one Inhibitor to Treat Diet-Induced Nonalcoholic Fatty Liver Disease in Mice” (Frontiers in Pharmacology, 2021)

Target: T1, 11β-HSD1 (Rattus norvegicus, UniProt P16232)
T1 construct: from tissue; host or cells: liver microsomes of male Sprague Dawley rats, prepared in house
Assay: 11β-HSD1 reductive activity in rat liver microsomes
Format: biochemical
Protocol: Preparation of Rat and Mouse Liver and Kidney Microsomes
The liver and kidney microsomes were prepared as previously described ([Guo et al., 2012]). Briefly, the tissue was homogenized in […] phosphate buffered saline (PBS) containing 0.25 M sucrose, and the nuclei and large cell debris were removed by centrifugation at 1500 g for 10 min. The supernatant was transferred to a tube and the mitochondria were removed by centrifugation at 10, 000 × g for 30 min. The supernatant was transferred to an ultracentrifuge tube and centrifuged twice at 105,000 × g, the resulting microsomal precipitate was collected. The protein content was measured by the BCA kit according to the manufacturer’s instruction. The protein concentration was adjusted to 20 mg/ml. These proteins were used to measure 11β-HSD1 and 11β-HSD2 activities. […]
The reductive activity of 11β-HSD1 in rat, mouse, and human liver microsomes was measured as previously described ([Ge et al., 2005]). […] 11β-HSD1 activity was measured using 11-DHC or cortisone as a substrate. […] The inhibitory ability of the chemical relative to the control (DMSO solvent) was measured. […] The steroids in chloroform and methanol (90:10, v/v) were chromatographically separated on a thin layer plate, and radioactivity was measured using a scanning radiometer (System AR2000, Bioscan Inc., Washington, DC, United States). […]

T1 sequence (P16232 whole entry): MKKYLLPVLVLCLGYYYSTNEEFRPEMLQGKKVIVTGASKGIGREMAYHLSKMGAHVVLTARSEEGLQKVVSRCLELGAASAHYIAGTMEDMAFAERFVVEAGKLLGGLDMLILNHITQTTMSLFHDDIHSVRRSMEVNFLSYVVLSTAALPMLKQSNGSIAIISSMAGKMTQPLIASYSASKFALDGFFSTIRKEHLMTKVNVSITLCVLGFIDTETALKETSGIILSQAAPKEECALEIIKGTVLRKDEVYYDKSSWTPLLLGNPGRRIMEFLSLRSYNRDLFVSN

inhibition at 100 µM (100 μM, initial screening, read-out: 11β-HSD1 inhibition, rat enzyme): 93.9 ± 0.42%
IC50 (rat liver microsomes, 25 nM 11DHC, NADPH): 378 nM
SMILES: O=C1/C(=C/c2c(F)cccc2F)CC/C1=C\c1c(F)cccc1F [WZS08, (2E,5E)-2,5-bis(2,6-difluorobenzylidene) Cyclopentanone]
